Measured values as given in PubChem BioAssay AID2060623 (Molecular Pharmacology Branch, DTP, NCI, 2025).

Tested on: 227483-062-R1-J1-PDC complex spheroids with HUVEC/MSC, viability
Test: Anticancer human tumor 227483-062-R1-J1-PDC patient-derived pancreatic carcinoma cell line growth inhibition [CLK]
Settings: for IC50: curve of first compound; for viability, T/C: stronger effect = lower value
Outline: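 Multi-cell-type spheroids combined patient-derived tumor cells with HUVEC endothelial cells and human mesenchymal stem cells. Paired agents were dosed in half-log steps down from about clinical Cmax, or from 10 microM where Cmax was unknown.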

[1] = second compound 0.0316 µM, first compound 0.0316 µM
[2] = second compound 0.0316 µM, first compound 0.1 µM
[3] = second compound 0.1 µM, first compound 0.0316 µM
[4] = second compound 0.1 µM, first compound 0.1 µM
[5] = second compound 0.316 µM, first compound 0.0316 µM
[6] = second compound 0.316 µM, first compound 0.1 µM
[7] = second compound 1 µM, first compound 0.0316 µM
[8] = second compound 1 µM, first compound 0.1 µM
[9] = second compound 3.16 µM, first compound 0.0316 µM
[10] = second compound 3.16 µM, first compound 0.1 µM
[11] = second compound 10 µM, first compound 0.0316 µM
[12] = second compound 10 µM, first compound 0.1 µM
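Also: spheroids exposed to compounds for seven days before readout.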
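For viability, T/C in this document: percent of DMSO vehicle control luminescence as 100% viability.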

CC(C)CC(NC(=O)C(Cc1ccccc1)NC(=O)c1cnccn1)B(O)O (stereo unspecified) + CN1CCN(c2cc(C(=O)Nc3cc4cc(-c5cnn(C)c5)ccc4cn3)ccn2)CC1
IC50 (second compound 0.0316 µM): 1.54 nM | IC50 (second compound 0.1 µM): 1.02 nM | IC50 (second compound 0.316 µM): < 0.949 nM | IC50 (second compound 1 µM): < 0.949 nM | IC50 (second compound 3.16 µM): < 0.949 nM | IC50 (second compound 10 µM): < 0.949 nM | viability, T/C (second compound 0.0316 µM, first compound 0.000949 µM): 84.2% | viability, T/C (second compound 0.0316 µM, first compound 0.003 µM): 2.58% | viability, T/C (second compound 0.0316 µM, first compound 0.00949 µM): 0.65% | viability, T/C (second compound 0.0316 µM, first compound 0.03 µM): 1.12% | viability, T/C (second compound 0.0316 µM, first compound 0.0949 µM): 0.45% | viability, T/C (second compound 0.0316 µM, first compound 0.3 µM): 0.74% | viability, T/C (second compound 0.1 µM, first compound 0.000949 µM): 53.2% | viability, T/C (second compound 0.1 µM, first compound 0.003 µM): 2.83% | viability, T/C (second compound 0.1 µM, first compound 0.00949 µM): 1.48% | viability, T/C (second compound 0.1 µM, first compound 0.03 µM): 5.65% | viability, T/C (second compound 0.1 µM, first compound 0.0949 µM): 0.4% | viability, T/C (second compound 0.1 µM, first compound 0.3 µM): 0.25% | viability, T/C (second compound 0.316 µM, first compound 0.000949 µM): 2.47% | viability, T/C (second compound 0.316 µM, first compound 0.003 µM): 3.26% | viability, T/C (second compound 0.316 µM, first compound 0.00949 µM): 0.59% | viability, T/C (second compound 0.316 µM, first compound 0.03 µM): 0.21% | viability, T/C (second compound 0.316 µM, first compound 0.0949 µM): 0.29% | viability, T/C (second compound 0.316 µM, first compound 0.3 µM): 0.75% | viability, T/C (second compound 1 µM, first compound 0.000949 µM): 3.27% | viability, T/C (second compound 1 µM, first compound 0.003 µM): 1.6% | viability, T/C (second compound 1 µM, first compound 0.00949 µM): 0.47% | viability, T/C (second compound 1 µM, first compound 0.03 µM): 2.61% | viability, T/C (second compound 1 µM, first compound 0.0949 µM): 0.34% | viability, T/C (second compound 1 µM, first compound 0.3 µM): 0.4% | viability, T/C (second compound 3.16 µM, first compound 0.000949 µM): 5.84% | viability, T/C (second compound 3.16 µM, first compound 0.003 µM): 2.27% | viability, T/C (second compound 3.16 µM, first compound 0.00949 µM): 1.43% | viability, T/C (second compound 3.16 µM, first compound 0.03 µM): 0.39% | viability, T/C (second compound 3.16 µM, first compound 0.0949 µM): 0.63% | viability, T/C (second compound 3.16 µM, first compound 0.3 µM): 1.73% | viability, T/C (second compound 10 µM, first compound 0.000949 µM): 3.7% | viability, T/C (second compound 10 µM, first compound 0.003 µM): 1.18% | viability, T/C (second compound 10 µM, first compound 0.00949 µM): 0.37% | viability, T/C (second compound 10 µM, first compound 0.03 µM): 1% | viability, T/C (second compound 10 µM, first compound 0.0949 µM): 0.3% | viability, T/C (second compound 10 µM, first compound 0.3 µM): 0.21%

Cn1ncnc1[C@H]1c2n[nH]c(=O)c3cc(F)cc(c23)N[C@@H]1c1ccc(F)cc1 + CN1CCN(c2cc(C(=O)Nc3cc4cc(-c5cnn(C)c5)ccc4cn3)ccn2)CC1
IC50 (second compound 0.0316 µM): > 100 nM | IC50 (second compound 0.1 µM): > 100 nM | IC50 (second compound 0.316 µM): < 0.316 nM | IC50 (second compound 1 µM): < 0.316 nM | IC50 (second compound 3.16 µM): < 0.316 nM | IC50 (second compound 10 µM): < 0.316 nM | viability, T/C (second compound 0.0316 µM, first compound 0.000316 µM): 114% | viability, T/C (second compound 0.0316 µM, first compound 0.001 µM): 118% | viability, T/C (second compound 0.0316 µM, first compound 0.00316 µM): 114% | viability, T/C (second compound 0.0316 µM, first compound 0.01 µM): 101% | viability, T/C [1]: 95.3% | viability, T/C [2]: 92.3% | viability, T/C (second compound 0.1 µM, first compound 0.000316 µM): 44.2% | viability, T/C (second compound 0.1 µM, first compound 0.001 µM): 66.2% | viability, T/C (second compound 0.1 µM, first compound 0.00316 µM): 53.6% | viability, T/C (second compound 0.1 µM, first compound 0.01 µM): 53.5% | viability, T/C [3]: 56.3% | viability, T/C [4]: 54.8% | viability, T/C (second compound 0.316 µM, first compound 0.000316 µM): 3.12% | viability, T/C (second compound 0.316 µM, first compound 0.001 µM): 3.26% | viability, T/C (second compound 0.316 µM, first compound 0.00316 µM): 3.58% | viability, T/C (second compound 0.316 µM, first compound 0.01 µM): 4.15% | viability, T/C [5]: 3.29% | viability, T/C [6]: 4.45% | viability, T/C (second compound 1 µM, first compound 0.000316 µM): 1.25% | viability, T/C (second compound 1 µM, first compound 0.001 µM): 1.34% | viability, T/C (second compound 1 µM, first compound 0.00316 µM): 1.34% | viability, T/C (second compound 1 µM, first compound 0.01 µM): 2.07% | viability, T/C [7]: 1.23% | viability, T/C [8]: 1.14% | viability, T/C (second compound 3.16 µM, first compound 0.000316 µM): 1.84% | viability, T/C (second compound 3.16 µM, first compound 0.001 µM): 2.14% | viability, T/C (second compound 3.16 µM, first compound 0.00316 µM): 1.91% | viability, T/C (second compound 3.16 µM, first compound 0.01 µM): 2.43% | viability, T/C [9]: 1.6% | viability, T/C [10]: 1.89% | viability, T/C (second compound 10 µM, first compound 0.000316 µM): 1.14% | viability, T/C (second compound 10 µM, first compound 0.001 µM): 1.09% | viability, T/C (second compound 10 µM, first compound 0.00316 µM): 1.63% | viability, T/C (second compound 10 µM, first compound 0.01 µM): 2.37% | viability, T/C [11]: 1.2% | viability, T/C [12]: 1%

O=C(c1cc(Cc2n[nH]c(=O)c3ccccc23)ccc1F)N1CCN(C(=O)C2CC2)CC1 + CN1CCN(c2cc(C(=O)Nc3cc4cc(-c5cnn(C)c5)ccc4cn3)ccn2)CC1
IC50 (second compound 0.0316 µM): > 10000 nM | IC50 (second compound 0.1 µM): > 10000 nM | IC50 (second compound 0.316 µM): < 31.6 nM | IC50 (second compound 1 µM): < 31.6 nM | IC50 (second compound 3.16 µM): < 31.6 nM | IC50 (second compound 10 µM): < 31.6 nM | viability, T/C [1]: 94.6% | viability, T/C [2]: 105% | viability, T/C (second compound 0.0316 µM, first compound 0.316 µM): 129% | viability, T/C (second compound 0.0316 µM, first compound 1 µM): 100% | viability, T/C (second compound 0.0316 µM, first compound 3.16 µM): 121% | viability, T/C (second compound 0.0316 µM, first compound 10 µM): 99.7% | viability, T/C [3]: 54.3% | viability, T/C [4]: 87.4% | viability, T/C (second compound 0.1 µM, first compound 0.316 µM): 60.1% | viability, T/C (second compound 0.1 µM, first compound 1 µM): 81.2% | viability, T/C (second compound 0.1 µM, first compound 3.16 µM): 84.4% | viability, T/C (second compound 0.1 µM, first compound 10 µM): 78.9% | viability, T/C [5]: 6.03% | viability, T/C [6]: 6.34% | viability, T/C (second compound 0.316 µM, first compound 0.316 µM): 4.67% | viability, T/C (second compound 0.316 µM, first compound 1 µM): 4.91% | viability, T/C (second compound 0.316 µM, first compound 3.16 µM): 5.89% | viability, T/C (second compound 0.316 µM, first compound 10 µM): 5.77% | viability, T/C [7]: 2.77% | viability, T/C [8]: 1.94% | viability, T/C (second compound 1 µM, first compound 0.316 µM): 1.82% | viability, T/C (second compound 1 µM, first compound 1 µM): 2.7% | viability, T/C (second compound 1 µM, first compound 3.16 µM): 2.26% | viability, T/C (second compound 1 µM, first compound 10 µM): 1.69% | viability, T/C [9]: 7.27% | viability, T/C [10]: 3.78% | viability, T/C (second compound 3.16 µM, first compound 0.316 µM): 4.39% | viability, T/C (second compound 3.16 µM, first compound 1 µM): 2.51% | viability, T/C (second compound 3.16 µM, first compound 3.16 µM): 4.57% | viability, T/C (second compound 3.16 µM, first compound 10 µM): 3.8% | viability, T/C [11]: 4.72% | viability, T/C [12]: 2.86% | viability, T/C (second compound 10 µM, first compound 0.316 µM): 2.33% | viability, T/C (second compound 10 µM, first compound 1 µM): 2.8% | viability, T/C (second compound 10 µM, first compound 3.16 µM): 2.43% | viability, T/C (second compound 10 µM, first compound 10 µM): 2.26%
